Results: the supplement of paper PMC4862054
Blank lines part the entries; values can stand above or below the molecule they belong to.

Experiments:
CAL-85-1 [1] = details: 72 h
Method in brief: (§1)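 For viability and cell death testing, 384-well plates carried compound at 5 concentrations in 10-fold steps over a compound-specific 10,000-fold range, and breast cancer cell lines were seeded in 20 µl suspension. After 72 h incubation, cell death was read by CellTox Green fluorescence (485/520 nm) before viability was read by CellTiter-Glo luminescence. EC50 was fitted from the dose-response curves and censored at the top concentration. Normalisation on each plate was to 0.1 % DMSO and a positive kill control.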

MDA-MB-453 [2] = details: 72 h
Method in brief: as §1

HCC1937 [3] = details: 72 h
Method in brief: as §1

MDA-MB-231 [4] = details: 72 h
Method in brief: as §1

CAL-51 [5] = details: 72 h
Method in brief: as §1

Hs578T [6] = details: 72 h
Method in brief: as §1

MCF-10A = details: 72 h
Method in brief: as §1

BT-474 [7] = details: 72 h
Method in brief: as §1

SK-BR-3 [8] = details: 72 h
Method in brief: as §1

BT-549 [9] = details: 72 h
Method in brief: as §1

MDA-MB-468 [10] = details: 72 h
Method in brief: as §1

MDA-MB-436 [11] = details: 72 h
Method in brief: as §1

CAL-120 [12] = details: 72 h
Method in brief: as §1

CAL-85-1 [13] = assay: normalised viability (% of control), CellTiter-Blue; higher = more viable cells (100 = DMSO, 0 = benzethonium chloride kill control); details: incubation time: 72 h
Protocol: (§2)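 DSRT, CellTiter-Blue viability, 72 h incubation. Signal is normalised to DMSO and benzethonium chloride controls. Value is the normalised response at dose 1.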

HCC1599 = assay: as above; details: incubation time: 72 h
Protocol: as §2

CAL-148 = assay: as above; details: incubation time: 72 h
Protocol: as §2

MFM-223 = assay: as above; details: incubation time: 72 h
Protocol: as §2

HCC1143 = assay: as above; details: incubation time: 72 h
Protocol: as §2

MDA-MB-453 [14] = assay: as above; details: incubation time: 72 h
Protocol: as §2

HCC1937 [15] = assay: as above; details: incubation time: 72 h
Protocol: as §2

MDA-MB-231 [16] = assay: as above; details: incubation time: 72 h
Protocol: as §2

CAL-51 [17] = assay: as above; details: incubation time: 72 h
Protocol: as §2

DU-4475 = assay: as above; details: incubation time: 72 h
Protocol: as §2

Hs578T [18] = assay: as above; details: incubation time: 72 h
Protocol: as §2

HDQ-P1 = assay: as above; details: incubation time: 72 h
Protocol: as §2

BT-474 [19] = assay: as above; details: incubation time: 72 h
Protocol: as §2

SK-BR-3 [20] = assay: as above; details: incubation time: 72 h
Protocol: as §2

BT-549 [21] = assay: as above; details: incubation time: 72 h
Protocol: as §2

MDA-MB-468 [22] = assay: as above; details: incubation time: 72 h
Protocol: as §2

MDA-MB-436 [23] = assay: as above; details: incubation time: 72 h
Protocol: as §2

CAL-120 [24] = assay: as above; details: incubation time: 72 h
Protocol: as §2

CAL-85-1 [25] = assay: normalised viability (% of control), CellTiter-Blue; higher = more viable cells (about 100 = DMSO control); details: incubation time: 72 h
Method in brief: (§3)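 Compound dissolved in 5 µl medium was pre-loaded into 384-well plates, and breast cancer cell lines in 20 µl suspension were seeded on top and incubated 72 h. After adding 2.5 µl CellTiter-Blue reagent for 2 h at 37 °C, fluorescence was read at 560/590 nm. Plates were normalised to vehicle (100) and a positive kill control (0), with Z'-factor quality control. Each value is normalised viability at a single listed concentration from the series.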

Hs578T [26] = assay: as above; details: incubation time: 72 h
Method in brief: as §3

BT-474 [27] = assay: as above; details: incubation time: 72 h
Method in brief: as §3

MDA-MB-468 [28] = assay: as above; details: incubation time: 72 h
Method in brief: as §3

MDA-MB-436 [29] = assay: as above; details: incubation time: 72 h
Method in brief: as §3

CAL-120 [30] = assay: as above; details: incubation time: 72 h
Method in brief: as §3

EC50, CellTiter-Glo (MDA-MB-453 [2]): 24.6 nM
EC50, CellTiter-Glo (HCC1937 [3]): 100 nM
EC50, CellTiter-Glo (MDA-MB-231 [4]): 73.8 nM
EC50, CellTiter-Glo (BT-474 [7]): 121 nM
EC50, CellTiter-Glo (SK-BR-3 [8]): 7.23 nM
EC50, CellTiter-Glo (BT-549 [9]): 30.8 nM
EC50, CellTiter-Glo (MDA-MB-468 [10]): 43.3 nM
EC50, CellTiter-Glo (MDA-MB-436 [11]): 11.6 nM
SMILES: COc1ccc(-c2ccc3c(N4CCOC[C@@H]4C)nc(N4CCOC[C@@H]4C)nc3n2)cc1CO [AZD8055]
EC50, CellTiter-Glo (CAL-85-1 [1]): 31.8 nM
EC50, CellTiter-Glo (CAL-51 [5]): 45.4 nM
EC50, CellTiter-Glo (Hs578T [6]): 57.5 nM
EC50, CellTiter-Glo (MCF-10A): 61 nM
EC50, CellTiter-Glo (CAL-120 [12]): 37.5 nM
normalised viability (CAL-85-1 [13]; 1 nM): 96.2%
normalised viability (HCC1599; 1 nM): 97.8%
normalised viability (CAL-148; 1 nM): 94.6%
normalised viability (MFM-223; 1 nM): 93%
normalised viability (HCC1143; 1 nM): 98.2%
normalised viability (MDA-MB-453 [14]; 1 nM): 89.3%
normalised viability (HCC1937 [15]; 1 nM): 102%
normalised viability (MDA-MB-231 [16]; 1 nM): 98.3%
normalised viability (CAL-51 [17]; 1 nM): 94%
normalised viability (DU-4475; 1 nM): 103%
normalised viability (Hs578T [18]; 1 nM): 105%
normalised viability (HDQ-P1; 1 nM): 104%
normalised viability (BT-474 [19]; 1 nM): 103%
normalised viability (SK-BR-3 [20]; 1 nM): 103%
normalised viability (BT-549 [21]; 1 nM): 106%
normalised viability (MDA-MB-468 [22]; 1 nM): 109%
normalised viability (MDA-MB-436 [23]; 1 nM): 113%
normalised viability (CAL-120 [24]; 1 nM): 93.2%
normalised viability (CAL-85-1 [25]; 3 nM): 85.1%
normalised viability (Hs578T [26]; 10 nM): 91.1%
normalised viability (BT-474 [27]; 10 nM): 108%
normalised viability (MDA-MB-468 [28]; 10 nM): 98.2%
normalised viability (MDA-MB-436 [29]; 10 nM): 98.3%
normalised viability (CAL-120 [30]; 10 nM): 91.4%

EC50, CellTiter-Glo (HCC1937 [3]): > 10000 nM
EC50, CellTiter-Glo (MDA-MB-231 [4]): 2840 nM
EC50, CellTiter-Glo (BT-474 [7]): 1660 nM
EC50, CellTiter-Glo (SK-BR-3 [8]): 5430 nM
EC50, CellTiter-Glo (BT-549 [9]): 3270 nM
EC50, CellTiter-Glo (MDA-MB-468 [10]): 7960 nM
EC50, CellTiter-Glo (MDA-MB-436 [11]): 7370 nM
SMILES: CN(C)CCN1C(=O)c2cccc3cc(N)cc(c23)C1=O [Amonafide]
EC50, CellTiter-Glo (CAL-85-1 [1]): 9240 nM
EC50, CellTiter-Glo (CAL-51 [5]): 5570 nM
EC50, CellTiter-Glo (Hs578T [6]): 1920 nM
EC50, CellTiter-Glo (MCF-10A): 8420 nM
EC50, CellTiter-Glo (CAL-120 [12]): 2700 nM
normalised viability (CAL-85-1 [13]; 1 nM): 90%
normalised viability (HCC1599; 1 nM): 88.2%
normalised viability (CAL-148; 1 nM): 89.9%
normalised viability (MFM-223; 1 nM): 93%
normalised viability (HCC1143; 1 nM): 83.7%
normalised viability (MDA-MB-453 [14]; 1 nM): 87.3%
normalised viability (HCC1937 [15]; 1 nM): 108%
normalised viability (MDA-MB-231 [16]; 1 nM): 93.1%
normalised viability (CAL-51 [17]; 1 nM): 107%
normalised viability (DU-4475; 1 nM): 99.6%
normalised viability (Hs578T [18]; 1 nM): 121%
normalised viability (HDQ-P1; 1 nM): 105%
normalised viability (BT-474 [19]; 1 nM): 103%
normalised viability (SK-BR-3 [20]; 1 nM): 101%
normalised viability (BT-549 [21]; 1 nM): 94.4%
normalised viability (MDA-MB-468 [22]; 1 nM): 110%
normalised viability (MDA-MB-436 [23]; 1 nM): 102%
normalised viability (CAL-120 [24]; 1 nM): 78.7%
normalised viability (CAL-85-1 [25]; 3 nM): 91.6%
normalised viability (Hs578T [26]; 10 nM): 113%
normalised viability (BT-474 [27]; 10 nM): 114%
normalised viability (MDA-MB-468 [28]; 10 nM): 105%
normalised viability (MDA-MB-436 [29]; 10 nM): 111%
normalised viability (CAL-120 [30]; 10 nM): 82%

EC50, CellTiter-Glo (MDA-MB-453 [2]): 12 nM
EC50, CellTiter-Glo (HCC1937 [3]): 13 nM
EC50, CellTiter-Glo (MDA-MB-231 [4]): 11.8 nM
EC50, CellTiter-Glo (BT-474 [7]): 9.85 nM
EC50, CellTiter-Glo (SK-BR-3 [8]): 14 nM
EC50, CellTiter-Glo (BT-549 [9]): 9.82 nM
EC50, CellTiter-Glo (MDA-MB-468 [10]): 23.1 nM
EC50, CellTiter-Glo (MDA-MB-436 [11]): 3.68 nM
SMILES: Cn1c(=O)n(-c2ccc(C(C)(C)C#N)cc2)c2c3cc(-c4cnc5ccccc5c4)ccc3ncc21 [Dactolisib]
EC50, CellTiter-Glo (CAL-85-1 [1]): 8.05 nM
EC50, CellTiter-Glo (CAL-51 [5]): 14.3 nM
EC50, CellTiter-Glo (Hs578T [6]): 13.6 nM
EC50, CellTiter-Glo (MCF-10A): 28.5 nM
EC50, CellTiter-Glo (CAL-120 [12]): 9.42 nM

SMILES: C/C(=C\c1csc(C)n1)[C@@H]1C[C@@H]2O[C@]2(C)CCC[C@H](C)[C@H](O)[C@@H](C)C(=O)C(C)(C)[C@@H](O)CC(=O)O1 [Patupilone]
EC50, CellTiter-Glo (CAL-85-1 [1]): 18.9 nM
EC50, CellTiter-Glo (MDA-MB-453 [2]): 84.9 nM
EC50, CellTiter-Glo (HCC1937 [3]): > 1000 nM
EC50, CellTiter-Glo (MDA-MB-231 [4]): 149 nM
EC50, CellTiter-Glo (CAL-51 [5]): 8.54 nM
EC50, CellTiter-Glo (Hs578T [6]): 57.3 nM
EC50, CellTiter-Glo (MCF-10A): 57.4 nM
EC50, CellTiter-Glo (BT-474 [7]): 219 nM
EC50, CellTiter-Glo (SK-BR-3 [8]): 38.9 nM
EC50, CellTiter-Glo (BT-549 [9]): 9.09 nM
EC50, CellTiter-Glo (MDA-MB-468 [10]): 7.53 nM
EC50, CellTiter-Glo (MDA-MB-436 [11]): 14.9 nM
EC50, CellTiter-Glo (CAL-120 [12]): 73.8 nM
normalised viability (CAL-85-1 [13]; 0.1 nM): 93.4%
normalised viability (HCC1599; 0.1 nM): 97.3%
normalised viability (CAL-148; 0.1 nM): 105%
normalised viability (MFM-223; 0.1 nM): 104%
normalised viability (HCC1143; 0.1 nM): 102%
normalised viability (MDA-MB-453 [14]; 0.1 nM): 97.5%
normalised viability (HCC1937 [15]; 0.1 nM): 95.6%
normalised viability (MDA-MB-231 [16]; 0.1 nM): 129%
normalised viability (CAL-51 [17]; 0.1 nM): 102%
normalised viability (DU-4475; 0.1 nM): 98.7%
normalised viability (Hs578T [18]; 0.1 nM): 118%
normalised viability (HDQ-P1; 0.1 nM): 112%
normalised viability (BT-474 [19]; 0.1 nM): 97.7%
normalised viability (SK-BR-3 [20]; 0.1 nM): 102%
normalised viability (BT-549 [21]; 0.1 nM): 113%
normalised viability (MDA-MB-468 [22]; 0.1 nM): 101%
normalised viability (MDA-MB-436 [23]; 0.1 nM): 116%
normalised viability (CAL-120 [24]; 0.1 nM): 94.6%
normalised viability (CAL-85-1 [25]; 0.3 nM): 95.2%
normalised viability (Hs578T [26]; 1 nM): 102%
normalised viability (BT-474 [27]; 1 nM): 103%
normalised viability (MDA-MB-468 [28]; 1 nM): 96%
normalised viability (MDA-MB-436 [29]; 1 nM): 86.8%
normalised viability (CAL-120 [30]; 1 nM): 109%
